The values below are quoted from earlier work in US20200085832A1, “DEUTERATED ANALOGS OF AN ORGANIC COMPOUND” (Agios Pharmaceuticals, Inc., priority 2019, published 2020).

Data set [1] concerns mutant IDH1. The following applies: biochemical and cellular assays.
Data set [2] has as its system mutant IDH2. The following applies: biochemical and cellular assays.
For data set [3], the system named is mutant IDH2 (mIDH2). The following applies: D. Rohle et al. Science 340:626-630 (2013).
In data set [4] the test system is mutant IDH1 (mIDH1). The following applies: D. Rohle et al. Science 340:626-630 (2013).
Data set [5] relates to mIDH1-driven gliomas. The following applies: some model systems.

For `C[C@@H](Nc1nc(N[C@H](C)C(F)(F)F)nc(-c2cccc(Cl)n2)n1)C(F)(F)F` [Compound X, 6-(6-chloropyridin-2-yl)-N^2,N^4-bis((R)-1,1,1-trifluoropropan-2-yl)-1,3,5-triazine-2,4-diamine], in data set [1], the “inhibitor of mutant IDH1 protein” value was “inhibitor of mutant IDH1 and IDH2 proteins”. Further, the “inhibitor of mutant IDH2 protein” value in data set [2] is “inhibitor of mutant IDH1 and IDH2 proteins”.
For the compound `Cc1ccccc1C(C(=O)NC1CCCCC1)N(C(=O)Cn1ccnc1C)c1cccc(F)c1` (centres unmarked) [AGI-5198], the “inhibition of mutant IDH2” value in data set [3] is on record as “not mutant IDH2 (mIDH2)”. In addition, the “inhibition of mutant IDH1” value in data set [4] was “inhibit mutant IDH1 (mIDH1)”. The “growth of mIDH1-driven gliomas” value in data set [5] is given as “repress growth of mIDH1-driven gliomas”.
